Data: PubChem BioAssay (NCI)
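Results reflect a 48-hour exposure of cells in 96-well plates to compound at five concentrations. GI50 marks 50% less growth. TGI marks complete inhibition of growth.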

Tests used:
Experiment in all cases: DTP human tumour cell line panel, 48 h
NCI-H226 lung = test system: NCI-H226 lung
A498 renal = test system: A498 renal
RXF 393 renal = test system: RXF 393 renal
CCRF-CEM leukemia = test system: CCRF-CEM leukemia
NCI-H460 lung = test system: NCI-H460 lung
EKVX NSCLC = test system: EKVX NSCLC
SNB-75 CNS = test system: SNB-75 CNS
PC-3 prostate = test system: PC-3 prostate

## Cc1cc(C#Cc2ccccc2)ccc1-n1c(/C=C/c2cc(O)ccc2O)nc2ccccc2c1=O
NCI-H226 lung
  GI50: 1.52 µM
  TGI: 3.93 µM
A498 renal
  GI50: 0.37 µM
  TGI: 2.63 µM
RXF 393 renal
  GI50: 1.65 µM
  TGI: 3.72 µM
CCRF-CEM leukemia
  GI50: 1.54 µM
  TGI: 7.13 µM
NCI-H460 lung
  GI50: 1.57 µM
  TGI: 2.91 µM
EKVX NSCLC
  GI50: 1.24 µM
  TGI: 5.41 µM
SNB-75 CNS
  GI50: 1.3 µM
  TGI: 2.78 µM
PC-3 prostate
  GI50: 2.19 µM
  TGI: 8.34 µM

## NC(=O)c1cc([N+](=O)[O-])cc([N+](=O)[O-])c1
NCI-H226 lung
  TGI: > 100 µM
A498 renal
  TGI: > 100 µM
RXF 393 renal
  TGI: > 100 µM
CCRF-CEM leukemia
  TGI: > 100 µM
NCI-H460 lung
  TGI: > 100 µM
EKVX NSCLC
  TGI: > 100 µM
SNB-75 CNS
  TGI: > 100 µM

## N=C1/C(=C2\Nc3ccccc3S2)CC(=O)N1c1ccc(SC(F)F)cc1
NCI-H226 lung
  GI50: 60.9 µM
  TGI: > 100 µM
RXF 393 renal
  GI50: 2.81 µM
  TGI: 25.7 µM
CCRF-CEM leukemia
  GI50: 0.839 µM
  TGI: > 100 µM
NCI-H460 lung
  GI50: 0.81 µM
  TGI: 30.9 µM
EKVX NSCLC
  GI50: 24.5 µM
  TGI: > 100 µM
SNB-75 CNS
  GI50: 0.17 µM
  TGI: 1.15 µM
PC-3 prostate
  GI50: 3.55 µM
  TGI: 93.5 µM

## O=C1NC(=O)C(c2c[nH]c3ccccc23)=C1c1ccccc1
NCI-H226 lung
  GI50: > 20.1 µM
  TGI: > 25 µM
A498 renal
  GI50: > 17.6 µM
  TGI: > 25 µM
RXF 393 renal
  GI50: > 25 µM
  TGI: > 25 µM
CCRF-CEM leukemia
  GI50: > 25 µM
  TGI: > 25 µM
NCI-H460 lung
  GI50: > 25 µM
  TGI: > 25 µM
SNB-75 CNS
  GI50: 10.3 µM
  TGI: > 25 µM
PC-3 prostate
  GI50: > 25 µM
  TGI: > 25 µM

## O=C1/C(=C/c2ccccc2[N+](=O)[O-])COc2ccc(O)c(O)c21
NCI-H226 lung
  GI50: 3.97 µM
  TGI: 25.2 µM
A498 renal
  GI50: 2.11 µM
  TGI: 5.07 µM
RXF 393 renal
  GI50: 0.357 µM
  TGI: 1.46 µM
CCRF-CEM leukemia
  GI50: 0.365 µM
  TGI: > 50 µM
NCI-H460 lung
  GI50: 1.38 µM
  TGI: 4.94 µM
EKVX NSCLC
  GI50: 2.51 µM
  TGI: 10.8 µM
SNB-75 CNS
  GI50: 1.46 µM
  TGI: 6.17 µM
PC-3 prostate
  GI50: 0.814 µM
  TGI: 4.89 µM

## c1ccc2c(c1)N=C(c1ccc3ccccc3c1)CC(c1cccc3ccccc13)S2 (configuration not stated)
NCI-H226 lung
  TGI: > 100 µM
A498 renal
  TGI: 75.4 µM
RXF 393 renal
  TGI: > 100 µM
CCRF-CEM leukemia
  TGI: 33.5 µM
NCI-H460 lung
  TGI: > 100 µM
EKVX NSCLC
  TGI: > 100 µM
SNB-75 CNS
  TGI: > 100 µM

## O=C1N=C(Nc2nc(-c3csc(NC4=NC(=O)/C(=C\c5ccc(Cl)cc5)S4)n3)cs2)S/C1=C/c1ccc(Cl)cc1
NCI-H226 lung
  GI50: 3.79 µM
  TGI: 22.3 µM
RXF 393 renal
  GI50: 11.6 µM
  TGI: > 50 µM
NCI-H460 lung
  GI50: 7.86 µM
  TGI: > 50 µM
EKVX NSCLC
  GI50: 12.3 µM
  TGI: > 50 µM
PC-3 prostate
  GI50: 8.78 µM
  TGI: 49 µM

## N=C1C(c2nc3ccccc3s2)=C(O)CN1c1cc(Cl)cc(Cl)c1
NCI-H226 lung
  GI50: > 100 µM
  TGI: > 100 µM
A498 renal
  GI50: > 100 µM
  TGI: > 100 µM
CCRF-CEM leukemia
  GI50: > 100 µM
  TGI: > 100 µM
NCI-H460 lung
  GI50: 18.5 µM
  TGI: > 100 µM
EKVX NSCLC
  GI50: > 100 µM
  TGI: > 100 µM
SNB-75 CNS
  GI50: 18.7 µM
  TGI: 77.4 µM
PC-3 prostate
  GI50: > 100 µM
  TGI: > 100 µM

## Cn1cc(C2=C(c3c(S(C)=O)n(C)c4ccccc34)C(=O)NC2=O)c2ccccc21 (configuration not stated)
NCI-H226 lung
  GI50: 8.04 µM
  TGI: > 25 µM
A498 renal
  GI50: 4.03 µM
  TGI: > 20.5 µM
RXF 393 renal
  GI50: 5.42 µM
  TGI: > 20.7 µM
CCRF-CEM leukemia
  GI50: 7.19 µM
  TGI: > 25 µM
NCI-H460 lung
  GI50: 5.83 µM
  TGI: > 25 µM
SNB-75 CNS
  GI50: 5.8 µM
  TGI: 22.3 µM
PC-3 prostate
  GI50: 8.19 µM
  TGI: > 25 µM

## C#Cc1ccc(-n2c(/C=C/c3ccc4ccccc4c3)nc3ncccc3c2=O)cc1
A498 renal
  GI50: 1.69 µM
  TGI: 5.86 µM
RXF 393 renal
  GI50: 1.79 µM
  TGI: 5.47 µM
CCRF-CEM leukemia
  GI50: 1.53 µM
  TGI: > 100 µM
NCI-H460 lung
  GI50: 2.88 µM
  TGI: > 100 µM
SNB-75 CNS
  GI50: 2.95 µM
  TGI: > 100 µM
PC-3 prostate
  GI50: 2.35 µM
  TGI: > 100 µM

## N#Cc1c(N)c(C#N)c2c(c1-c1ccc(Cl)cc1)COc1ccc(F)cc1-2
A498 renal
  GI50: 7.89 µM
  TGI: 28 µM
RXF 393 renal
  GI50: > 50 µM
  TGI: > 50 µM
CCRF-CEM leukemia
  GI50: > 50 µM
  TGI: > 50 µM
NCI-H460 lung
  GI50: 18.7 µM
  TGI: > 50 µM
EKVX NSCLC
  GI50: 12.4 µM
  TGI: > 50 µM
SNB-75 CNS
  GI50: 25.6 µM
  TGI: > 50 µM
PC-3 prostate
  GI50: > 50 µM
  TGI: > 50 µM

## Cc1cc2c(cc1Cl)N1C(=O)NS(=O)(=O)N=C1NS2(=O)=O
NCI-H226 lung
  GI50: > 100 µM
  TGI: > 100 µM
A498 renal
  GI50: > 100 µM
  TGI: > 100 µM
CCRF-CEM leukemia
  GI50: > 100 µM
  TGI: > 100 µM
NCI-H460 lung
  GI50: > 100 µM
  TGI: > 100 µM
EKVX NSCLC
  GI50: > 100 µM
  TGI: > 100 µM
SNB-75 CNS
  GI50: > 100 µM
  TGI: > 100 µM
PC-3 prostate
  GI50: > 100 µM
  TGI: > 100 µM

## CC(=O)C(C=O)C(C)=O.CC(=O)CC(C)=O.CC(=O)CC(C)=O.[Ru]
NCI-H226 lung
  GI50: 5.83 µM
  TGI: 35.2 µM
RXF 393 renal
  GI50: 40.9 µM
  TGI: > 100 µM
CCRF-CEM leukemia
  GI50: 5.62 µM
  TGI: 21.8 µM
NCI-H460 lung
  GI50: 28.5 µM
  TGI: > 100 µM
EKVX NSCLC
  GI50: 18.1 µM
  TGI: 95.9 µM
SNB-75 CNS
  GI50: > 100 µM
  TGI: > 100 µM
PC-3 prostate
  GI50: 13.2 µM
  TGI: 71.2 µM

## OCc1ccc(N(Cc2ccc(F)cc2)CC2CCC2)cc1Cl
NCI-H226 lung
  GI50: 0.178 µM
  TGI: 0.525 µM
A498 renal
  GI50: 0.092 µM
  TGI: 0.34 µM
RXF 393 renal
  GI50: 6.07 µM
  TGI: 18 µM
CCRF-CEM leukemia
  GI50: 15.1 µM
  TGI: 36 µM
NCI-H460 lung
  GI50: 3.17 µM
  TGI: 15 µM
SNB-75 CNS
  GI50: 12.4 µM
  TGI: 25.3 µM
PC-3 prostate
  GI50: 11.8 µM
  TGI: 24.8 µM

## N[C@@H](CSSC[C@H](N)C(=O)N1CCn2cc(-c3ccccc3)nc2[C@@H]1CC1CCCCC1)C(=O)N1CCn2cc(-c3ccccc3)nc2[C@@H]1CC1CCCCC1
NCI-H226 lung
  GI50: 2.02 µM
  TGI: 4.09 µM
A498 renal
  GI50: 2.68 µM
  TGI: 5.39 µM
RXF 393 renal
  GI50: 1.63 µM
  TGI: 3.1 µM
NCI-H460 lung
  GI50: 1.92 µM
  TGI: 6.4 µM
EKVX NSCLC
  GI50: 1.34 µM
  TGI: 2.81 µM
SNB-75 CNS
  GI50: 1.79 µM
  TGI: 3.3 µM
PC-3 prostate
  GI50: 2.91 µM
  TGI: 9.62 µM

## COc1ccc2c(c1)N(CCO)C1=C(C(=O)OC1)C2c1ccc(OC)c(OC)c1 (configuration not stated)
NCI-H226 lung
  GI50: 2.29 µM
  TGI: 9.55 µM
A498 renal
  GI50: 1.56 µM
  TGI: 5.93 µM
CCRF-CEM leukemia
  GI50: 3.99 µM
  TGI: > 100 µM
NCI-H460 lung
  GI50: 3.09 µM
  TGI: 12.6 µM
EKVX NSCLC
  GI50: 6.52 µM
  TGI: > 100 µM
SNB-75 CNS
  GI50: 2.7 µM
  TGI: > 100 µM
PC-3 prostate
  GI50: 3.03 µM
  TGI: > 100 µM

## Cc1[nH]n(-c2cccc(Cl)c2)c(=O)c1/C=C1\C=c2ccccc2=CC1=O
A498 renal
  GI50: > 100 µM
  TGI: > 100 µM
CCRF-CEM leukemia
  GI50: 97.5 µM
  TGI: > 100 µM
NCI-H460 lung
  GI50: > 100 µM
  TGI: > 100 µM
EKVX NSCLC
  GI50: > 100 µM
  TGI: > 100 µM
SNB-75 CNS
  GI50: 0.927 µM
  TGI: 32.7 µM
PC-3 prostate
  GI50: > 100 µM
  TGI: > 100 µM

## Cc1ccc(S(=O)(=O)CC2(Br)CCc3ccccc3C2=O)cc1 (configuration not stated)
NCI-H226 lung
  TGI: > 100 µM
A498 renal
  TGI: 95 µM
RXF 393 renal
  TGI: 39 µM
NCI-H460 lung
  TGI: > 100 µM
EKVX NSCLC
  TGI: > 100 µM
SNB-75 CNS
  TGI: 54.9 µM
PC-3 prostate
  TGI: > 100 µM
